Measured values published in patent publication US20120207766A1, “INTRACELLULAR TOLL-LIKE RECEPTORS PATHWAYS AND AXONAL DEGENERATION” (priority 2009, published 2012).

Legend:
MOG-specific Th17 cell = experiment: Peripheral T cell responses (Th17) by flow cytometry in MOG-myelitis mice; type: in vivo; details: systemic administration; FIG. 12 panel A, each bar a single mouse
Method: Mianserin treatment. Mice are induced with MOG-myelitis as described. Groups of mice initially receive intraperitoneally 1-10 mg/kg/day. The start day can vary between days 5-12 (before disease onset) and 14-20 (after disease onset). Peripheral T cell responses and CNS infiltration are analyzed by flow cytometry. Lumbar spinal cords are examined immunohistologically to characterize the degrees of axonal degeneration, secondary demyelination and CNS infiltration by peripheral immune cells during the various stages of MaG-myelitis. The mice are perfused with 4% paraformaldehyde and sections from lumbar spinal cord arestained with various antibodies and analyzed by confocal microscopy. In every step the degree of inflammation, axonal degeneration and demyelination is confirmed by using the following antibodies: CD11b (macrophages), CD3 (T cells), CD11c (dendritic cells), Glial fibrillary acidic protein (GFAP astroglia), Myelin Basic protein (MBP, for myelin), and SMI32 (hypophosphorylated NF—H, disrupted axons). To examine intracellular TLR and partner molecules antibodies against TLR3, 8 and 9, MyD88 and IRAK4, NALP1, ASC, active caspase-1, and IL-1 r3 are used.
Peripheral T cell responses. […]
Flow cytometry. […] Immunostained cells are analyzed using a Cyan FACS (Dako Cytomation).

MOG-myelitis = experiment: MOG peptide myelitis, neurological deficit scoring after systemic mianserin; type: in vivo, mice; details: systemic administration; FIG. 12 panels B and C, n=8
Method: Induction of MOG peptide myelitis, and clinical evaluation. MOG peptide myelitis is elicited in 3 month old male mice by subcutaneous flank administration of 300 μg of rodent MOG peptide 35-55 emulsified in CFA. The mice receive 75 ng of pertussis toxin intraperitoneally on days 0 and 2, and are weighed and scored daily for neurological deficits by 2 blinded observers. Neurological scoring is on a 5 point scale: limp tail or waddling gait=1; limp tail and waddling gait=2; single limb paresis and ataxia 2.5; double limb paresis=3; single limb paralysis and paresis of a second limb=3.5; full paralysis of 2 limbs=4; and death (or sacrifice owing to inanition=5) (Bannerman et al, Brain 128:1877-1886 2005; Bannerman et al., Glia 55:57-64 2008; and Soulika et al, J Neurosci 29:14965-14979 2009).
Mianserin treatment. Mice are induced with MOG-myelitis as described. Groups of mice initially receive intraperitoneally 1-10 mg/kg/day. The start day can vary between days 5-12 (before disease onset) and 14-20 (after disease onset). Peripheral T cell responses and CNS infiltration are analyzed by flow cytometry. […] The mice are perfused with 4% paraformaldehyde and sections from lumbar spinal cord arestained with various antibodies and analyzed by confocal microscopy. […]

## CN1CCN2c3ccccc3Cc3ccccc3C2C1 (centres unmarked) [mianserin]
MOG-specific Th17 cell
  MOG-specific Th17 cell generation in the periphery: does not affect
MOG-myelitis
  neurological symptoms associated with MOG-myelitis: diminishes
